Tests used:
Cytotoxicity, MTT assay = format: cell-based; conditions: African green monkey, Vero cells (ATCC CCL-81)
Method: Cells were incubated with different concentrations of compounds 3e, 3′a, 6a, 6b, 6d, 6f, 6k, 6s, 6n, and 6o, varying from 3.9 µM to 1.0 mM. The relative cell viabilities were determined after 24 h using the MTT assay and compared to the untreated control (100% viability). A 5% Tween solution was used as positive control. Figure 5 reports the viability % for all evaluated concentrations.
Evaluation of compounds’ cytotoxicity was performed using the MTT (3-(4,5-dimethylthiazol-2-yl)-2,5-diphenyltetrazolium bromide) colorimetric assay, based on the Mosmann et al. procedure with some modifications. […] Stock solutions of each compound prepared in Dulbeccos’s phosphate-buffered saline (D-PBS, Sigma, St. Quentin Fallavier, France) at a concentration of 2 mM were subjected to 2-fold serial dilutions with RPMI medium.
96-wells microtiter plates were first filled with 100 µL of a cell suspension prepared in RPMI medium (2 × 10^4 cells/100 µL). […] A third control was performed with a non-inoculated culture medium and compounds solution to validate the absence of interactions (OD measurements) between the assessed molecule and the reagents used in the procedure. […] After agitation, the OD was measured at 570 nm using a CLARIOstar Plus plate reader (BMG Labtech) and the viability percentage was calculated using the following formula. […]

[1] = test system: P. aeruginosa PAO1 biofilms; test: Anti-biofilm assay, CFU count of adherent cells; format: cell-based, Pseudomonas aeruginosa PAO1; conditions: PAO1, 48 h, relative to untreated control, mean ± SD of 3 independent experiments; for inhibition at 50 µM: Pseudomonas aeruginosa
Method: The effect of all compounds was evaluated on PAO1 biofilms, grown in 24-well microplates. The antibiofilm assay used in this study is based on a low nutritive culture medium, a rather weak inoculum (10^2 CFU/mL), and a regular renewal of the culture medium (at 2, 4, 6, 20, and 24 h), in order to promote the growth of adhered cells as biofilm, instead of the growth and/or sedimentation of planktonic cells. Since the QS systems are involved in early steps of biofilm formation, compounds were added at t0. After incubation, viable cells were quantified by CFU plate counts.
The rather low concentration of 50 µM used was set up according to detected concentrations of QS molecules in CF patients’ lungs. […] For all compounds, MICs/MBCs were higher than 500 µM. To be considered active, a threshold of 50% inhibition, relative to the untreated control, was applied.
Pseudomonas aeruginosa PAO1 was obtained from the Institute Pasteur Collection (CIP 104116, Paris, France), frozen and kept at -80 °C in a 20% (v/v) glycerol stock solution. Before each experiment, two successive subcultures were prepared on trypticase soy agar and incubated for 24 h under aerobic conditions at 37 °C. Before each experiment, bacterial suspensions of 10^8 CFU/mL were prepared by adjusting OD at 640 nm to 0.150.
The bacterial enumerations were done on trypticase soy agar. The minimum biofilm broth used for biofilm formation (MBB) was prepared in sterile distilled water (SDW) and was composed of MgSO4·7H2O (0.02 g/L), FeSO4·7H2O (0.5 mg/L), Na2HPO4 (1.25 g/L), KH2PO4 (0.5 g/L), (NH4)2SO4 (0.1 g/L), and glucose (0.05 g/L) from Merck-Sigma (France).
The enumeration of adhered bacteria was carried-out according to Campanac et al. with some modifications. P. aeruginosa biofilms were grown in a 24-wells microtiter plate for 48 h. The culture medium was composed of BBM 2X (1.0 mL) and 1.0 mL of a 10^−4 M solution of tested compound dissolved in SDW (final concentration 50 µM). After inoculation with 100 µL of a 10^2 CFU/mL bacterial suspension of P. aeruginosa PAO1 (final inoculum 10 CFU/well), the microtiter plate was incubated à 37 °C. After 2 h, 4 h, 6 h, 20 h and 24 h of incubation, each well was emptied, rinsed twice with SDW, and the culture medium was renewed. After 48 h of culture, the biofilm was rinsed twice with 2.0 mL SDW. The bottom of each well was scraped with a sterile spatula and suspended in 1.0 mL of SDW. The content of each well was diluted by serial dilutions in test tubes. After inclusion of 0.9 mL of each dilution in trypticase soy agar, Petri dishes were incubated for 48 h at 37 °C. The number of colony forming units (CFUs) was counted and the inhibition percentage calculated using the following formula: Inhibition(%)=Adhered cellsControl(CFU/mL)−Adhered cellsSample(CFU/mL) /Adhered cellsControl×100

Row | Compound | melting point [°C] | IC50 at 24 h (Cytotoxicity, MTT assay) [µM] | Biofilm Inhibition (%) ([1]; 50 µM) | inhibition at 50 µM [1] [%]
1 | O=C(Nc1cc(=O)c2ccccc2o1)c1ccc([N+](=O)[O-])cc1[N+](=O)[O-] [6n, 2,4-Dinitro-N-(4-oxo-4H-chromen-2-yl) benzamide] | 252 | > 1000 | 90.0 ± 9.9 | 90.9 ± 9.9
2 | O=C(Nc1ccc(F)cc1Cl)c1cc(=O)c2ccccc2o1 [3k, N-(2-Chloro-4-fluorophenyl)-4-oxo-4H-chromene-2-carboxamide] | 229 | – | – | 44.7 ± 9.4
3 | O=C(Nc1ccc(F)c(Cl)c1)c1cc(=O)c2ccccc2o1 [3l, N-(3-Chloro-4-fluorophenyl)-4-oxo-4H-chromene-2-carboxamide] | 291 | – | – | < 10
4 | COc1ccc(NC(=O)c2cc(=O)c3ccccc3o2)cc1OC [3s, N-(3,4-Dimethoxyphenyl)-4-oxo-4H-chromene-2-carboxamide] | 229 | – | – | < 10
5 | CCc1ccc(C(=O)Nc2cc(=O)c3ccccc3o2)cc1 [6c, 4-Ethyl-N-(4-oxo-4H-chromen-2-yl) benzamide] | 237 | – | – | 63.1 ± 3
6 | O=C(Nc1cc([N+](=O)[O-])cc([N+](=O)[O-])c1)c1cc(=O)c2ccccc2o1 [3o, N-(3,5-Dinitrophenyl)-4-oxo-4H-chromene-2-carboxamide] | 312 | – | – | 43.8 ± 24.2
7 | O=C(Nc1cc(=O)c2ccccc2o1)c1ccccc1F [6h, 2-Fluoro-N-(4-oxo-4H-chromen-2-yl) benzamide] | 194 | – | – | 27.8 ± 10.7
8 | O=C(Nc1cc(=O)c2ccccc2o1)c1ncccn1 [6v, N-(4-Oxo-4H-chromen-2-yl) pyrimidine-2-carboxamide] | 215 | – | – | 48.8 ± 2.6
9 | COc1ccc(C(=O)Nc2cc(=O)c3ccccc3o2)cc1 [6p, 4-Methoxy-N-(4-oxo-4H-chromen-2-yl) benzamide] | 227 | – | – | 39.3 ± 17.1
10 | O=C(NC12CC3CC(CC(C3)C1)C2)c1cc(=O)c2ccccc2o1 [3y, N-((3S,5S,7S)-Adamantan-1-yl)-4-oxo-4H-chromene-2-carboxamide] | 201 | – | – | 24.4 ± 8.8
11 | COc1cc(NC(=O)c2cc(=O)c3ccccc3o2)cc(OC)c1 [3t, N-(3,5-Dimethoxyphenyl)-4-oxo-4H-chromene-2-carboxamide] | 211 | – | – | < 10

Now from value to molecule, other results behind:

Row | melting point [°C] | Compound | IC50 at 24 h (Cytotoxicity, MTT assay) [µM] | Biofilm Inhibition (%) ([1]; 50 µM) | inhibition at 50 µM [1] [%]
12 | 229 | O=C(Nc1ccccc1)c1cc(=O)c2ccccc2o1 [3a, 4-Oxo-N-phenyl-4H-chromene-2-carboxamide] | – | – | 21.4 ± 17
13 | 166 | CCCNC(=O)c1cc(=O)c2ccccc2o1 [3w, 4-Oxo-N-propyl-4H-chromene-2-carboxamide] | – | – | < 10
14 | 212 | CCCC(=O)Nc1cc(=O)c2ccccc2o1 [6w, N-(4-Oxo-4H-chromen-2-yl) butyramide] | – | – | 56.4 ± 7.2
15 | 229 | CCCc1ccc(C(=O)Nc2cc(=O)c3ccccc3o2)cc1 [6d, N-(4-Oxo-4H-chromen-2-yl)-4-propylbenzamide] | – | – | 69.9 ± 9.7
16 | 179 | CCc1ccc(NC(=O)c2cc(=O)c3ccccc3o2)cc1 [3c, N-(4-Ethylphenyl)-4-oxo-4H-chromene-2-carboxamide] | – | – | 43.3 ± 7.2
17 | 195 | O=C(Nc1ccccc1Br)c1cc(=O)c2ccccc2o1 [3j, N-(2-Bromophenyl)-4-oxo-4H-chromene-2-carboxamide] | – | – | 46.1 ± 10.2
18 | 171 | O=C(NCCCn1ccnc1)c1cc(=O)c2ccccc2o1 [3′f, N-(3-(1H-Imidazol-1-yl)propyl)-4-oxo-4H-chromene-2-carboxamide] | – | – | < 10
19 | 163 | CSc1ccccc1NC(=O)c1cc(=O)c2ccccc2o1 [3r, N-(2-(Methylthio)phenyl)-4-oxo-4H-chromene-2-carboxamide] | – | – | 47.8 ± 5.7

Source: PMC9026348, “Investigation of Direct and Retro Chromone-2-Carboxamides Based Analogs of Pseudomonas aeruginosa Quorum Sensing Signal as New Anti-Biofilm Agents” (Pharmaceuticals, 2022)
